We go through four molecules from patent US20020133846A1, “Method for protecting plants” (priority 1996, published 2002).

The test system of experiment [1] is Peronospora parasitica isolate Emwa. Briefly: Action against Peronospora parasitica in Arabidopsis overexpressing NIM1 (lines 6E, 7C) and wild-type Ws. The experiment is classed as in vivo. From the text: The plant lines used in this example (6E and 7C) were generated from transformation of wild-type Arabidopsis thaliana plants (ecotype Ws) with the BamHI-HindIII NIM1 genomic fragment (SEQ ID NO:1—bases 1249-5655), as described above in Example 21. The fungicides metalaxyl, fosetyl, and copper hydroxide, formulated as 25%, 80%, and 70% active ingredient (ai), respectively, with a wettable powder carrier, were applied as fine mist to leaves of three week-old transgenic Ws plants constitutively expressing the NIM1 gene. The wettable powder alone was applied as a control. Three days later, plants were inoculated with a Peronospora parasitica isolate Emwa conidial suspension (1-2×10^5 spores/ml), as described in Delaney et al. (1995). Following inoculation, plants were covered to maintain high humidity and were placed in a Percival growth chamber at 17° C. with a 14-hr day/10-hr night cycle (Uknes et al., 1993). Tissue was harvested 8 days after inoculation.
Fungal infection progression was followed for 12 days by viewing under a dissecting microscope to score development of conidiophores (Delaney, et al. (1994); Dietrich, et al. (1994)). Lactophenoltrypan blue staining of individual leaves was carried out to observe fungal growth within leaf tissue. Fungal growth was quantified using a rRNA fungal probe obtained by PCR according to White et al. (1990; PCR Protocols: A guide to Methods and Application, 315-322) using primers NS1 and NS2 and P. parasitica EmWa DNA as templates. RNA was purified from frozen tissue by phenol/chloroform extraction following lithium chloride precipitation (Lagrimini et al, 1987: PNAS, 84: 7542-7546). Samples (7.5 μg) were separated by electrophoresis through formaldehyde agarose gels and blotted to nylon membranes (Hybond-N+, Amersham) as described by Ausbel et al. (1987). Hybridizations and washing were according to Church and Gilbert (1984, PNAS, 81: 1991-1995). Relative amounts of the transcript were determined using a Phosphor Imager (Molecular Dynamics, Sunnyvale, Calif.) following manufacturers instructions. Sample loading was normalized by probing stripped filter blots with the constitutively expressed b-tubulin Arabidopsis cDNA.

For experiment [2], the system named is Peronospora parasitica NoCo2. Briefly: whole plant or invertebrate. The experiment is classed as in vivo.
Setting [3] is: Cu(OH)2 0.02 g/l, NIM1 overexpression line 6E.
Where [4] appears, read: Cu(OH)2 0.02 g/l, NIM1 overexpression line 7C.
[5] abbreviates: Cu(OH)2 0.2 g/l, NIM1 overexpression line 6E.
Setting [6] is: Cu(OH)2 0.2 g/l, NIM1 overexpression line 7C.
Where [7] appears, read: Cu(OH)2 2.0 g/l, NIM1 overexpression line 6E.
[8] abbreviates: Cu(OH)2 2.0 g/l, NIM1 overexpression line 7C.

SMILES strings stand for the structures. Read-outs that look alike come from different tables or passages of the source.

For the molecule `COCC(=O)N(c1c(C)cccc1C)C(C)C(=O)OC` (racemic) [metalaxyl], the inhibition at 1.2 µg/mL in experiment [1] (Hyaloperonospora parasitica, in Arabidopsis thaliana, Table 36, NIM1 overexpression line 6E, metalaxyl 0.0012 g/l, read-out: Fungal Growth Inhibition % O (observed)) was found to be 56%. Also, the inhibition at 12.5 µg/mL in experiment [1] (Hyaloperonospora parasitica, in Arabidopsis thaliana, Table 36, NIM1 overexpression line 6E, metalaxyl 0.0125 g/l, read-out: Fungal Growth Inhibition % O (observed)) was 76%. The “Synergy Factor O/E” value amounted to 1.5 in experiment [1] (Table 36, NIM1 overexpression line 6E + metalaxyl 0.0012 g/l); 1.1 in experiment [1] (Table 36, NIM1 overexpression line 6E + metalaxyl 0.0125 g/l); 4.6 in experiment [2] (Table 33, cim3 mutation + metalaxyl 0.1 mg/l); 6.6 in experiment [2] (Table 33, cim3 mutation + metalaxyl 2.5 mg/l). The inhibition at 0.02 µg/mL in experiment [2] (Hyaloperonospora parasitica, in Arabidopsis thaliana, read-out: Fungal Growth Inhibition % O (observed), Table 33, cim3 mutant, metalaxyl 0.02 mg/l) was 55.6%. For the same molecule, the inhibition at 0.1 µg/mL in experiment [2] (Hyaloperonospora parasitica, in Arabidopsis thaliana, read-out: Fungal Growth Inhibition % O (observed), Table 33, cim3 mutant, metalaxyl 0.1 mg/l) stood at 57.8%. The inhibition at 2.5 µg/mL in experiment [2] (Hyaloperonospora parasitica, in Arabidopsis thaliana, read-out: Fungal Growth Inhibition % O (observed), Table 33, cim3 mutant, metalaxyl 2.5 mg/l) is 82.2%.
With `CSC(=O)c1cccc2nnsc12` [BTH], the inhibition at 10 µM in experiment [2] (Hyaloperonospora parasitica, in Arabidopsis thaliana, read-out: Fungal Growth Inhibition % O (observed), Table 34, cim3 mutant, BTH 0.01 mM) worked out at 16.6%. Also, the inhibition at 30 µM in experiment [2] (Hyaloperonospora parasitica, in Arabidopsis thaliana, read-out: Fungal Growth Inhibition % O (observed), Table 34, cim3 mutant, BTH 0.03 mM) turned out to be 73.1%. Besides, the “Synergy Factor O/E” value worked out at 1.3 in experiment [2] (Table 34, cim3 mutation + BTH 0.01 mM) and 2.2 in experiment [2] (Table 34, cim3 mutation + BTH 0.03 mM).
For `[Cu+2].[OH-].[OH-]` [Cu(OH)2, copper hydroxide], the “Fungal Growth Inhibition % O (observed)” value came out at 20% in experiment [1] (setting [3]); 55% in experiment [1] (setting [4]); 14% in experiment [1] (setting [5]); 51% in experiment [1] (setting [6]); 66% in experiment [1] (setting [7]); 77% in experiment [1] (setting [8]). The “Synergy Factor O/E” value in experiment [1] (setting [3]) is given as 2.0; in experiment [1] (setting [4]), 3.9; in experiment [1] (setting [5]), 1.4; in experiment [1] (setting [6]) it was 3.6; in experiment [1] (setting [7]) it was 6.6; in experiment [1] (setting [8]), 5.5. In addition, the synergy factor in experiment [1] (NIM1 overexpression line 7C + copper hydroxide 2.0 g/l) worked out at 5.5. Further, in experiment [1] (NIM1 overexpression line 7C, copper hydroxide 2.0 g/l), the “fungal growth inhibition (observed)” value was 77%.
On to `CCO[PH](=O)O` [fosetyl, ethyl hydrogen phosphonate], for which the inhibition at 50 µg/mL in experiment [1] (Hyaloperonospora parasitica, in Arabidopsis thaliana, Table 37, NIM1 overexpression line 6E, fosetyl 0.05 g/l, read-out: Fungal Growth Inhibition % O (observed)) turned out to be 42%. Moreover, the inhibition at 500 µg/mL amounted to 83% in experiment [1] (Hyaloperonospora parasitica, in Arabidopsis thaliana, Table 37, NIM1 overexpression line 6E, fosetyl 0.5 g/l, read-out: Fungal Growth Inhibition % O (observed)) and 56% in experiment [1] (Hyaloperonospora parasitica, in Arabidopsis thaliana, fosetyl 0.5 g/l, NIM1 overexpression line 7C, read-out: Fungal Growth Inhibition % O (observed)). In addition, the inhibition at 5000 µg/mL in experiment [1] (Hyaloperonospora parasitica, in Arabidopsis thaliana, read-out: Fungal Growth Inhibition % O (observed), Table 37, NIM1 overexpression line 6E, fosetyl 5.0 g/l) was 93%; in experiment [1] (Hyaloperonospora parasitica, in Arabidopsis thaliana, read-out: Fungal Growth Inhibition % O (observed), fosetyl 5.0 g/l, NIM1 overexpression line 7C), 80%. The “Synergy Factor O/E” value in experiment [1] (Table 37, NIM1 overexpression line 6E + fosetyl 0.05 g/l) worked out at 4.2; in experiment [1] (Table 37, NIM1 overexpression line 6E + fosetyl 0.5 g/l), 6.9; in experiment [1] (Table 37, NIM1 overexpression line 6E + fosetyl 5.0 g/l), 5.5; in experiment [1] (fosetyl 0.5 g/l, NIM1 overexpression line 7C), 3.5; in experiment [1] (fosetyl 5.0 g/l, NIM1 overexpression line 7C), 3.8.
